Data set [1] relates to HBV replication in HepAD38 cells. Description: Anti-HBV replication assay in HepAD38 cells (QPCR of extracellular HBV DNA). The class given is cell-based, HBV (genotype D, serotype ayw). The note with it: Hepatitis B virus, 168 h, 7 days incubation, extracellular HBV DNA by QPCR, read-out: Anti-HBV EC50. The essentials: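 EC50 values reflect 50% reduction of extracellular HBV DNA, measured by QPCR after 7-day treatment of tetracycline-deprived HepAD38 cells with compound […].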

A short description of data set [2]: In vitro cytotoxicity assay (MTT cell viability) in HepG2 cells. In kind it is cell-based, human. The note with it: human. The essentials: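 HepG2 seeded overnight, then 7-day compound exposure (30 μM–1.0 nM, half-log steps), 37 °C. MTT 3-4 h, DMSO solubilization, A492. % of vehicle → CC50, 4-PL fit.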

As to `Cc1cc(NC(=O)c2c(C)c(C(=O)C(=O)NC[C@H](C)O)n(C)c2C)ccc1F` [Example 218, (S)-N-(4-fluoro-3-methylphenyl)-5-(2-((2-hydroxypropyl)amino)-2-oxoacetyl)-1,2,4-trimethyl-1H-pyrrole-3-carboxamide], the half-maximal effective concentration (EC50) (in general, the midpoint of the concentration-response curve) in data set [1] is below 0.05 µM. The CC50 (usually the concentration that lowers cell viability or growth by half) at 7 days in data set [2] was 5 to 30 µM.

As to `Cc1cc(NC(=O)c2c(C)c(C(=O)C(=O)N[C@H](C)CO)n(C)c2C)ccc1F` [Example 219, (R)-N-(4-fluoro-3-methylphenyl)-5-(2-((1-hydroxypropan-2-yl)amino)-2-oxoacetyl)-1,2,4-trimethyl-1H-pyrrole-3-carboxamide], the EC50 in data set [1] was below 0.05 µM. Also, the CC50 at 7 days in data set [2] was above 30 µM.

With `Cc1cc(NC(=O)c2c(C)c(C(=O)C(=O)NC[C@@H](C)O)n(C)c2C)ccc1F` [Example 220, (R)-N-(4-ffluoro-3-methylphenyl)-5-(2-((2-hydroxypropyl)amino)-2-oxoacetyl)-1,2,4-trimethyl-1H-pyrrole-3-carboxamide], the EC50 in data set [1] was below 0.05 µM. In data set [2], this compound registered a 50% cytotoxic concentration (CC50) at 7 days of 5 to 30 µM.

For `Cc1cc(NC(=O)c2c(C)c(C(=O)C(=O)N[C@H]3CC[C@](O)(C(F)(F)F)CC3)n(C)c2C)ccc1F` [Example 221, N-(4-fluoro-3-methylphenyl)-5-(2-(((1s,4s)-4-hydroxy-4-(trifluoromethyl)cyclohexyl)amino)-2-oxoacetyl)-1,2,4-trimethyl-1H-pyrrole-3-carboxamide], in data set [1], the EC50 was below 0.05 µM. In addition, in data set [2], the CC50 at 7 days was in the range of 5 to 30 µM.

Consider `Cc1cc(NC(=O)c2c(C)c(C(=O)C(=O)NC(C)(C)CO)n(CCF)c2C)cnc1F` [Example 222, N-(6-fluoro-5-methylpyridin-3-yl)-1-(2-fluoroethyl)-5-(2-((1-hydroxy-2-methylpropan-2-yl)amino)-2-oxoacetyl)-2,4-dimethyl-1H-pyrrole-3-carboxamide], for which the EC50 in data set [1] was above 1 µM. The compound also showed a CC50 at 7 days in data set [2] above 30 µM.

As for `Cc1cc(NC(=O)c2c(C)c(C(=O)C(=O)NC3CCSCC3)n(C)c2C)ccc1F` [Example 223, N-(4-fluoro-3-methylphenyl)-1,2,4-trimethyl-5-(2-oxo-2-((tetrahydro-2H-thiopyran-4-yl)amino)acetyl)-1H-pyrrole-3-carboxamide], the EC50 in data set [1] is below 0.05 µM. In data set [2], this compound yielded a CC50 at 7 days of 5 to 30 µM.

For the compound `Cc1cc(NC(=O)c2c(C)c(C(=O)C(=O)NC(C)(C)C(F)(F)F)n(CCF)c2C)cnc1F` [Example 224, N-(6-ffluoro-5-methylpyridin-3-yl)-1-(2-fluoroethyl)-2,4-dimethyl-5-(2-oxo-2-((1,1,1-trifluoro-2-methylpropan-2-yl)amino)acetyl)-1H-pyrrole-3-carboxamide], in data set [1], the concentration giving a half-maximal response (EC50) fell in the range of 0.05 to 0.499 µM. The compound also showed a CC50 at 7 days in data set [2] above 30 µM.

Take `Cc1cc(NC(=O)c2c(C)c(C(=O)C(=O)NC(C)(C)C)n(CCF)c2C)cnc1F` [Example 225, 5-(2-(tert-butylamino)-2-oxoacetyl)-N-(6-fluoro-5-methylpyridin-3-yl)-1-(2-fluoroethyl)-2,4-dimethyl-1H-pyrrole-3-carboxamide]: in data set [1], the EC50 lay in the range of 0.5 to 1 µM. In addition, in data set [2], the CC50 at 7 days is above 30 µM.

With `COCC(C)(C)NC(=O)C(=O)c1c(C)c(C(=O)Nc2cnc(F)c(C)c2)c(C)n1CCF` [Example 226, N-(6-fluoro-5-methylpyridin-3-yl)-1-(2-fluoroethyl)-5-(2-((1-methoxy-2-methylpropan-2-yl)amino)-2-oxoacetyl)-2,4-dimethyl-1H-pyrrole-3-carboxamide], the EC50 in data set [1] was in the range of 0.5 to 1 µM. The CC50 at 7 days in data set [2] is above 30 µM.

Regarding `Cc1cc(NC(=O)c2c(C)c(C(=O)C(=O)NC(C)(C)C(F)(F)F)n(CCF)c2C)ccc1F` [Example 227, N-(4-fluoro-3-methylphenyl)-1-(2-fluoroethyl)-2,4-dimethyl-5-(2-oxo-2-((1,1,1-trifluoro-2-methylpropan-2-yl)amino)acetyl)-1H-pyrrole-3-carboxamide], the EC50 in data set [1] is below 0.05 µM. In addition, in data set [2], the CC50 at 7 days was above 30 µM.

Turning to `Cc1cc(NC(=O)c2c(C)c(C(=O)C(=O)N[C@]3(C)CC[C@H](O)CC3)n(C)c2C)ccc1F` [Example 228, N-(4-fluoro-3-methylphenyl)-5-(2-(((1s,4s)-4-hydroxy-1-methylcyclohexyl)amino)-2-oxoacetyl)-1,2,4-trimethyl-1H-pyrrole-3-carboxamide], the EC50 in data set [1] was below 0.05 µM. Further, the CC50 at 7 days in data set [2] was above 30 µM.

`Cc1cc(NC(=O)c2c(C)c(C(=O)C(=O)NCc3csc(N)n3)n(CCF)c2C)ccc1F` [Example 229, 5-(2-(((2-aminothiazol-4-yl)methyl)amino)-2-oxoacetyl)-N-(4-fluoro-3-methylphenyl)-1-(2-fluoroethyl)-2,4-dimethyl-1H-pyrrole-3-carboxamide]: the concentration giving a half-maximal response (EC50) in data set [1] was below 0.05 µM. In data set [2], the CC50 at 7 days was above 30 µM.

In the case of `Cc1cc(NC(=O)c2c(C)c(C(=O)C(=O)NC3(C(F)(F)F)CCOCC3)n(CCF)c2C)ccc1F` [Example 230, N-(4-fluoro-3-methylphenyl)-1-(2-fluoroethyl)--2,4-dimethyl-5-(2-oxo-2-((4-(trifluoromethyl)tetrahydro-2H-pyran-4-yl)amino)acetyl)-1H-pyrrole-3-carboxamide], the EC50 in data set [1] is below 0.05 µM. The compound further showed a half-maximal cytotoxic concentration (CC50) at 7 days in data set [2] above 30 µM.

Turning to `Cc1cc(NC(=O)c2c(C)c(C(=O)C(=O)Nc3ccc(F)c(F)c3)n(C)c2C)ccc1F` [Example 231, 5-(2-((3,4-difluorophenyl)amino)-2-oxoacetyl)-N-(4-fluoro-3-methylphenyl)-1,2,4-trimethyl-1H-pyrrole-3-carboxamide], the EC50 in data set [1] is below 0.05 µM. The CC50 at 7 days in data set [2] is 5 to 30 µM.

On to `Cc1cc(NC(=O)c2c(C)c(C(=O)C(=O)N[C@H]3CC[C@H](N)CC3)n(C)c2C)ccc1F` [Example 232, 5-(2-(((1r,4r)-4-aminocyclohexyl)amino)-2-oxoacetyl)-N-(4-fluoro-3-methylphenyl)-1,2,4-trimethyl-1H-pyrrole-3-carboxamide], for which the EC50 in data set [1] is below 0.05 µM. Besides, in data set [2], the 50% cytotoxic concentration (CC50) at 7 days was above 30 µM.

With `Cc1cc(NC(=O)c2c(C)c(C(=O)C(=O)NC3CCNCC3)n(C)c2C)ccc1F` [Example 233, N-(4-fluoro-3-methylphenyl)-1,2,4-trimethyl-5-(2-oxo-2-(piperidin-4-ylamino)acetyl)-1H-pyrrole-3-carboxamide], the EC50 in data set [1] was 0.05 to 0.499 µM. The compound also had a CC50 at 7 days in data set [2] above 30 µM.

Take `Cc1cc(NC(=O)c2c(C)c(C(=O)C(=O)NC3(C(F)(F)F)CC3)n(C)c2C)cnc1F` [Example 234, N-(6-fluoro-5-methylpyridin-3-yl)-1,2,4-trimethyl-5-(2-oxo-2-((1-(trifluoromethyl)cyclopropyl)amino)acetyl)-1H-pyrrole-3-carboxamide]: the EC50 in data set [1] is below 0.05 µM. This compound came in with a half-maximal cytotoxic concentration (CC50) at 7 days in data set [2] above 30 µM.

Turning to `Cc1cc(NC(=O)c2c(C)c(C(=O)C(=O)NC3(C(F)(F)F)CCC3)n(C)c2C)ccc1F` [Example 236, N-(4-fluoro-3-methylphenyl)-1,2,4-trimethyl-5-(2-oxo-2-((1-(trifluoromethyl)cyclobutyl)amino)acetyl)-1H-pyrrole-3-carboxamide], the EC50 in data set [1] was below 0.05 µM. Moreover, the CC50 at 7 days in data set [2] fell in the range of 5 to 30 µM.

For the compound `Cc1cc(NC(=O)c2c(C)c(C(=O)C(=O)NC3(C)CC(F)(F)C3)n(C)c2C)ccc1F` [Example 238, 5-(2-((3,3-difluoro-1-methylcyclobutyl)amino)-2-oxoacetyl)-N-(4-fluoro-3-methylphenyl)-1,2,4-trimethyl-1H-pyrrole-3-carboxamide], the EC50 in data set [1] is below 0.05 µM. In addition, in data set [2], the CC50 at 7 days is above 30 µM.

As for `Cc1c(C(=O)Nc2ccc(F)nc2)c(C)n(C)c1C(=O)C(=O)N[C@H]1CC[C@](O)(C(F)(F)F)CC1` [Example 239], the EC50 in data set [1] was in the range of 0.5 to 1 µM. Besides, in data set [2], the CC50 at 7 days was above 30 µM.

As for `Cc1c(C(=O)Nc2ccc(F)nc2)c(C)n(C)c1C(=O)C(=O)N[C@]1(C)CC[C@H](O)CC1` [Example 240, N-(6-fluoropyridin-3-yl)-5-(2-(((1s,4s)-4-hydroxy-1-methylcyclohexyl)amino)-2-oxoacetyl)-1,2,4-trimethyl-1H-pyrrole-3-carboxmaide], in data set [1], the EC50 lay in the range of 0.05 to 0.499 µM. The same compound returned a CC50 at 7 days in data set [2] above 30 µM.

`COCC(C)(C)NC(=O)C(=O)c1c(C)c(C(=O)Nc2ccc(F)c(C)c2)c(C)n1CCF` [Example 241, N-(4-fluoro-3-methylphenyl)-1-(2-fluoroethyl)-5-(2-((1-methoxy-2-methylpropan-2-yl)amino)-2-oxoacetyl)-2,4-dimethyl-1H-pyrrole-3-carboxamide]: in data set [1], the EC50 was below 0.05 µM. Further, the CC50 at 7 days in data set [2] is above 30 µM.

Consider `CNC(=O)C(=O)c1c(C)c(C(=O)Nc2ccc(F)c(C)c2)c(C)n1C` [Example 242, N-(4-fluoro-3-methylphenyl)-1,2,4-trimethyl-5-(2-(methylamino)-2-oxoacetyl)-1H-pyrrole-3-carboxamide], for which the EC50 in data set [1] lay in the range of 0.05 to 0.499 µM. In data set [2], this compound showed a CC50 at 7 days above 30 µM.

With `Cc1cc(NC(=O)c2c(C)c(C(=O)C(=O)NCc3nc(C(F)(F)F)no3)n(C)c2C)ccc1F` [Example 243, N-(4-fluoro-3-methylphenyl)-1,2,4-trimethyl-5-(2-oxo-2-(((3-(trifluoromethyl)-1,2,4-oxadiazol-5-yl)methyl)amino)acetyl)-1H-pyrrole-3-carboxamide], the EC50 in data set [1] is below 0.05 µM. Moreover, the CC50 at 7 days in data set [2] lay in the range of 5 to 30 µM.

As for `Cc1cc(NC(=O)c2c(C)c(C(=O)C(=O)NCc3nnc(C(F)(F)F)[nH]3)n(C)c2C)ccc1F` [Example 244, N-(4-fluoro-3-methylphenyl)-1,2,4-trimethyl-5-(2-oxo-2-(((t-(trifluoromethyl)-4H-1,2,4-triazol-3-yl)methyl)amino)acetyl)-1H-pyrrole-3-carboxamide], the EC50 in data set [1] is 0.05 to 0.499 µM. Further, in data set [2], the CC50 at 7 days is 5 to 30 µM.
